Key:
Assay in all cases: Competitive isoTOP-ABPP in situ (fragment-treated cells)
Type in all cases: cell-based
[1] = biological target: cysteines in MDA-MB-231 and Ramos cells (Homo sapiens, UniProt Q5MNZ6)
[2] = biological target: T1, cysteines in MDA-MB-231 and Ramos cells (Homo sapiens, UniProt Q96EB1)
T1 sequence (Q96EB1 1-424): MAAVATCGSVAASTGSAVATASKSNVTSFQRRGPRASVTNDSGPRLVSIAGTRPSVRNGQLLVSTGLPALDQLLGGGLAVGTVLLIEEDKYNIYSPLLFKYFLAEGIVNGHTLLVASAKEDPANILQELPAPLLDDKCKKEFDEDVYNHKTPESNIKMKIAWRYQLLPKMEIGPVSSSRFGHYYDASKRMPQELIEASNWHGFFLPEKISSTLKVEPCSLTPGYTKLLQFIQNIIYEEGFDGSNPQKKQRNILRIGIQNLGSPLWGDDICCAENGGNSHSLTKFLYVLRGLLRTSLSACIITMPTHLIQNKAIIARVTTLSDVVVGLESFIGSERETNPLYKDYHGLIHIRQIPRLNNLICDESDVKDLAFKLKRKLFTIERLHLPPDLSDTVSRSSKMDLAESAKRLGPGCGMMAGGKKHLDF

[3] = biological target: cysteines in MDA-MB-231 and Ramos cells (Homo sapiens, UniProt Q9Y676)
[4] = biological target: T2, cysteines in MDA-MB-231 and Ramos cells (Homo sapiens, UniProt P55265); settings: 200 μM, insitu
T2 sequence (P55265 1-1226): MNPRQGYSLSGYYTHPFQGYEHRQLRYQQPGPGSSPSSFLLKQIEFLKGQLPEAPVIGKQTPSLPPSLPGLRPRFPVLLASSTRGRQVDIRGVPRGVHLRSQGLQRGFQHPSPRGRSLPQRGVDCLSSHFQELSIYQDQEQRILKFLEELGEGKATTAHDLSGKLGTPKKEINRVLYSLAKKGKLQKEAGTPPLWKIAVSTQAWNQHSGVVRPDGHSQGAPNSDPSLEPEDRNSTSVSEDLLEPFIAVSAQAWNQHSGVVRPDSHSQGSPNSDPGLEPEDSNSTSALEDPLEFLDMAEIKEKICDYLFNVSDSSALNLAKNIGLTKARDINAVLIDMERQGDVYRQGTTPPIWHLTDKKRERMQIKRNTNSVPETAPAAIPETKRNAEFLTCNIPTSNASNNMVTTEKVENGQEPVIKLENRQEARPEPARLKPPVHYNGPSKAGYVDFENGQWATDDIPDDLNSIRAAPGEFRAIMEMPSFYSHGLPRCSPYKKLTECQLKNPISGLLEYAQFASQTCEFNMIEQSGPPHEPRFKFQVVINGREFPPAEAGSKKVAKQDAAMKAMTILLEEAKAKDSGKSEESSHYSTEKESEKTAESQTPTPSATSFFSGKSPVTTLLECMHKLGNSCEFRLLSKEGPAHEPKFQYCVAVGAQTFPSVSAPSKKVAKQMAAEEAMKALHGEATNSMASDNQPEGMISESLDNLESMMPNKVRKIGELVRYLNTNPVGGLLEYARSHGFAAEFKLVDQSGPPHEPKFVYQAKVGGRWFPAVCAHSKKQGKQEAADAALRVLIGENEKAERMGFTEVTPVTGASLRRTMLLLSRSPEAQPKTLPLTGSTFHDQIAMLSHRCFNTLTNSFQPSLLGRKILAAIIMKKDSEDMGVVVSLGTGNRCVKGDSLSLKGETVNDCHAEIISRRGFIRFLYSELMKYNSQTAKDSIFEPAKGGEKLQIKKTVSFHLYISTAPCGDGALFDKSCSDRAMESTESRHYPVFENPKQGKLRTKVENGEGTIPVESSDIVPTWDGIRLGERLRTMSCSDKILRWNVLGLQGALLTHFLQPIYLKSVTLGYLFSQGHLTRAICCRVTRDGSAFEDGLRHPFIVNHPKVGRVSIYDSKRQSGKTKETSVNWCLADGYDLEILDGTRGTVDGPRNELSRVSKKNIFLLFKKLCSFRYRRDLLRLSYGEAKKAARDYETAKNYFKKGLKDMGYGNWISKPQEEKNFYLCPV

[5] = biological target: cysteines in MDA-MB-231 and Ramos cells (Homo sapiens, UniProt P46109); settings: 200 μM, insitu
[6] = biological target: T3, cysteines in MDA-MB-231 and Ramos cells (Homo sapiens, UniProt O14733); settings: 200 μM, insitu
T3 sequence (O14733 1-419): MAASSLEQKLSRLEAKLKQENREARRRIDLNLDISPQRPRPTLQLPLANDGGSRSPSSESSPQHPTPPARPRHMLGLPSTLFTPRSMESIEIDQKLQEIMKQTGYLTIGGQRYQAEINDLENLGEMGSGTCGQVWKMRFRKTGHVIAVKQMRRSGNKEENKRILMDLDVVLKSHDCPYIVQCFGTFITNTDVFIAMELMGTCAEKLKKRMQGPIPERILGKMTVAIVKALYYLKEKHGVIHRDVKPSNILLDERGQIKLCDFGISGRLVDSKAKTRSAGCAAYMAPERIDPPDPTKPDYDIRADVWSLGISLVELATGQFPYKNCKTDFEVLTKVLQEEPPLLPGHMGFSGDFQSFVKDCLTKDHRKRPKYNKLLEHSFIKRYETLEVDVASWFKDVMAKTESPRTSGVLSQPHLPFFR

[7] = biological target: T4, cysteines in MDA-MB-231 and Ramos cells (Homo sapiens, UniProt Q5TFE4); settings: 200 μM, insitu
T4 sequence (Q5TFE4 1-455): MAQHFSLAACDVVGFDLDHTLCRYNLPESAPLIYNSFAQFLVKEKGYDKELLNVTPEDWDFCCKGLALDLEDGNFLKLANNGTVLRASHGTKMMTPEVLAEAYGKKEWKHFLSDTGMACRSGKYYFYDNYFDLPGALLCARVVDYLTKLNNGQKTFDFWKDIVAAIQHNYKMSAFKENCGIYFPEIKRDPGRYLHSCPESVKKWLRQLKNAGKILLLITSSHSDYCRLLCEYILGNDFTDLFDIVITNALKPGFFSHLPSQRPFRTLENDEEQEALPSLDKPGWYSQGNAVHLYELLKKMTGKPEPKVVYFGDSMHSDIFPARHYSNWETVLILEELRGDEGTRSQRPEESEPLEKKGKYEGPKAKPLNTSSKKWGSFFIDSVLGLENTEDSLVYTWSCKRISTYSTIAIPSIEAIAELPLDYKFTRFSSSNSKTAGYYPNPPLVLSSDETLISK

Chain of cysteines in MDA-MB-231 and Ramos cells (Homo sapiens, UniProt P46109) (P46109 whole entry): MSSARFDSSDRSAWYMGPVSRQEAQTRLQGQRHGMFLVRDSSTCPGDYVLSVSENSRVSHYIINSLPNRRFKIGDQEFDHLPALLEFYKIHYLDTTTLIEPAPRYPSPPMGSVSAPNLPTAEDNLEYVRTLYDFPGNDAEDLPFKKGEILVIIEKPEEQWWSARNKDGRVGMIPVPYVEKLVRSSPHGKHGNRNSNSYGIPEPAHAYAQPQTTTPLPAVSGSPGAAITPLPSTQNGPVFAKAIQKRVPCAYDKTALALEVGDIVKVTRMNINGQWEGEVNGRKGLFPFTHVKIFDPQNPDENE
Chain of cysteines in MDA-MB-231 and Ramos cells (Homo sapiens, UniProt Q5MNZ6) (Q5MNZ6 whole entry): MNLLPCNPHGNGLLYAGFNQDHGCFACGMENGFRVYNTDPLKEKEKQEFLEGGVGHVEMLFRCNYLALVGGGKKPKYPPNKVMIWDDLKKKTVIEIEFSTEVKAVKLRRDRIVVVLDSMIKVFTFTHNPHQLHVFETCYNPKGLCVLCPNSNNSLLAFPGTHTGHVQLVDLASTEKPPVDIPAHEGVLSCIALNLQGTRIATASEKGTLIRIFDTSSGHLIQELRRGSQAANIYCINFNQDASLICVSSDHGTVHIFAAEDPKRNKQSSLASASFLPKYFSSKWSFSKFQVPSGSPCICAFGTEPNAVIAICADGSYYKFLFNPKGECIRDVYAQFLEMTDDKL

COc1ccc(C2CC(c3cccs3)=NN2C(=O)CCl)cc1 (stereo not shown) [compound 4]
isoTOP-ABPP reactivity Q5MNZ6_C63 WDR45L ([1]; 100 μM in situ 231): 2.0
isoTOP-ABPP reactivity Q96EB1_C218 ELP4 ([2]; 100 μM in situ 231): 20.0
isoTOP-ABPP reactivity Q9Y676_C128 MRPS18B ([3]; 100 μM in situ 231): 2.3

O=C(CCl)Nc1cccc2ncccc12 [compound 51]
isoTOP-ABPP ratio P55265_C1224 [4]; 231: 1.3
isoTOP-ABPP ratio Q9Y676_C128 ([3]; 200 μM, insitu, 231): 1.0

CC1CCc2ccccc2N1C(=O)CCl (stereo not shown) [compound 45]
isoTOP-ABPP ratio P46109_C249 [5]; 231: 20.0
isoTOP-ABPP ratio P55265_C1224 [4]; 231: 20.0
isoTOP-ABPP ratio Q5MNZ6_C63 ([1]; 200 μM, insitu, 231): 2.6
isoTOP-ABPP ratio Q96EB1_C218 ([2]; 200 μM, insitu, 231): 20.0
isoTOP-ABPP ratio Q9Y676_C128 ([3]; 200 μM, insitu, 231): 2.0

O=C(CCl)NC(=O)NC12CC3CC(CC(C3)C1)C2 [compound 12]
isoTOP-ABPP ratio, cysteine O14733_C131 [6]; 231: 1.7
isoTOP-ABPP ratio P46109_C249 [5]; 231: 20.0
isoTOP-ABPP ratio Q5MNZ6_C63 ([1]; 200 μM, insitu, 231): 20.0
isoTOP-ABPP ratio Q9Y676_C128 ([3]; 200 μM, insitu, 231): 1.4

O=C(CCl)N1CCN(S(=O)(=O)c2ccccc2F)CC1 [compound 10]
isoTOP-ABPP ratio, cysteine O14733_C131 [6]; 231: 1.8
isoTOP-ABPP ratio P46109_C249 [5]; 231: 20.0
isoTOP-ABPP ratio, cysteine P55265_C1224 [4]; 231: 10.7
isoTOP-ABPP ratio Q5MNZ6_C63 ([1]; 200 μM, insitu, 231): 3.6
isoTOP-ABPP ratio, cysteine Q5TFE4_C119 ([7]; ramos): 20.0
isoTOP-ABPP ratio, cysteine Q96EB1_C218 ([2]; 200 μM, insitu, 231): 1.1
isoTOP-ABPP ratio Q9Y676_C128 ([3]; 200 μM, insitu, 231): 2.9

O=C(CCl)N1CCN(CC(=O)N2CCOCC2)CC1 [compound 29]
isoTOP-ABPP ratio O14733_C131 ([6]; ramos): 1.0
isoTOP-ABPP ratio P46109_C249 ([5]; ramos): 4.2
isoTOP-ABPP ratio P55265_C1224 ([4]; ramos): 1.8
isoTOP-ABPP ratio Q96EB1_C218 ([2]; 200 μM, insitu, ramos): 1.1

CC(C)CCOCCNC(=O)CCl [compound 27]
isoTOP-ABPP ratio P55265_C1224 [4]; 231: 1.4
isoTOP-ABPP ratio Q96EB1_C218 ([2]; 200 μM, insitu, 231): 0.6
isoTOP-ABPP ratio Q9Y676_C128 ([3]; 200 μM, insitu, 231): 1.0

O=C(CCl)N1CCC(Cc2ccccc2)CC1 [compound 9]
isoTOP-ABPP reactivity P46109_0249 CRKL [5]; 231: 6.7
isoTOP-ABPP reactivity Q5TFE4_C119 NT5DC1 [7]; 231: 20.0
isoTOP-ABPP reactivity Q96EB1_C218 ELP4 ([2]; 200 μM, insitu, 231): 8.4

O=C(CCl)NC12CC3CC(CC(C3)C1)C2 [compound 21]
isoTOP-ABPP ratio, cysteine O14733_C131 [6]; 231: 0.7
isoTOP-ABPP ratio P46109_C249 [5]; 231: 0.9
isoTOP-ABPP ratio, cysteine P55265_C1224 [4]; 231: 2.2
isoTOP-ABPP ratio Q5MNZ6_C63 ([1]; 200 μM, insitu, 231): 0.8
isoTOP-ABPP ratio, cysteine Q5TFE4_C119 [7]; 231: 1.2
isoTOP-ABPP ratio, cysteine Q96EB1_C218 ([2]; 200 μM, insitu, 231): 0.7
isoTOP-ABPP ratio Q9Y676_C128 ([3]; 200 μM, insitu, 231): 1.5

COc1ccc2c(c1)CCCN2C(=O)CCl [compound 2]
isoTOP-ABPP reactivity P46109_0249 CRKL [5]; 231: 20.0
isoTOP-ABPP reactivity P55265_C1224 ADAR [4]; 231: 9.1
isoTOP-ABPP reactivity Q9Y676_C128 MRPS18B ([3]; 200 μM, insitu, 231): 10.2

Cn1cc(S(=O)(=O)N2CCOCC2)cc1C(=O)NC(=O)CCl [compound 11]
isoTOP-ABPP ratio Q5MNZ6_C63 ([1]; 100 μM in situ 231): 0.9
isoTOP-ABPP ratio Q9Y676_C128 ([3]; 100 μM in situ 231): 0.8

COc1ccccc1OCCNC(=O)CCl [compound 28]
isoTOP-ABPP ratio Q5MNZ6_C63 ([1]; 200 μM, insitu, 231): 1.7

O=C(CCl)NCCc1c[nH]c2ccccc12 [compound 13]
isoTOP-ABPP ratio, cysteine O14733_C131 ([6]; ramos): 1.6
isoTOP-ABPP ratio P46109_C249 ([5]; ramos): 1.8
isoTOP-ABPP ratio, cysteine P55265_C1224 [4]; 231: 1.9
isoTOP-ABPP ratio Q5MNZ6_C63 ([1]; 200 μM, insitu, 231): 1.1
isoTOP-ABPP ratio, cysteine Q5TFE4_C119 ([7]; ramos): 1.7
isoTOP-ABPP ratio, cysteine Q96EB1_C218 ([2]; 200 μM, insitu, 231): 1.2
isoTOP-ABPP ratio, cysteine Q96EB1_C218 ([2]; 200 μM, insitu, ramos): 1.7

Cc1ccc(C=C(C#N)C(=O)NCCN2CCOCC2)cc1 [compound 41]
isoTOP-ABPP ratio O14733_C131 [6]; 231: 0.8
isoTOP-ABPP ratio Q5MNZ6_C63 ([1]; 200 μM, insitu, 231): 0.8
isoTOP-ABPP ratio Q5TFE4_C119 [7]; 231: 0.5

C=CC(=O)Nc1cc(F)c(N2CCN(C(=O)OC(C)(C)C)CC2)c(F)c1 [compound 38]
isoTOP-ABPP ratio O14733_C131 [6]; 231: 20.0
isoTOP-ABPP ratio P46109_C249 [5]; 231: 1.6
isoTOP-ABPP ratio Q96EB1_C218 ([2]; 200 μM, insitu, 231): 1.3
isoTOP-ABPP ratio Q9Y676_C128 ([3]; 200 μM, insitu, 231): 1.0

C=CC(=O)N(Cc1cccnc1)c1cc(C(F)(F)F)cc(C(F)(F)F)c1 [compound 31]
isoTOP-ABPP ratio Q5TFE4_C119 [7]; 231: 3.1

COc1cc2c(cc1OC)CN(C(=O)CCl)CC2 [compound 8]
isoTOP-ABPP reactivity Q5MNZ6_C63 WDR45L ([1]; 200 μM, insitu, 231): 20.0
isoTOP-ABPP reactivity Q9Y676_C128 MRPS18B ([3]; 200 μM, insitu, 231): 1.0

Reference: patent US10670605B2, “Cysteine reactive probes and uses thereof” (The Scripps Research Institute, priority 2015, dated 2020)
